Results taken from patent US5399729A, “Esterified alkoxylated polyol fat substitutes having high primary ester content” (Arco Chemical Technology, L.P., priority 1993, dated 1995).

System: porcine pancreatic lipase
Experiment: Porcine pancreatic lipase-catalyzed hydrolysis (lipase titrimetric assay, automatic pH stat method)
Assay type: in vitro ADME
Conditions: pH 8.5
Procedure: To measure the relative rate of enzyme-catalyzed hydrolysis for the esterified propoxylated glycerin, the composition was challenged by porcine pancreatic lipase. Test emulsions were prepared using the composition according to the procedures described by Naher, "Lipase Titrimetric Assay", in Methods in Enzymatic Analysis, Vol. 2, 2nd Eng. ed., p. 814 (1974), except that the composition was not neutralized prior to generation of the emulsion. A 20 mL sample of the composition was utilized. The emulsions were generated in a Waring blender equipped with a stainless steel jacketed container (300 mL capacity). The jacketed blender container was filled with an ice-in-water suspension to cool the emulsion during preparation. Hydrolysis of the composition at pH 8.50 and two enzyme levels (200 and 4000 units/assay) was monitored via the automatic pH stat method described by Naber using a Radiometic Copenhagen RTS822 recording titration system (equipped with a PHM84 pH meter and a REA 270 derivatization unit) and a 0.1N sodium hydroxide solution. The enzymatic reaction was maintained at 37° C. under a nitrogen atmosphere.
The results obtained for the esterified alkoxylated polyol obtained as described hereinabove and for olive oil and soybean oil controls are shown in Table I. The table also provides comparative data for a conventional esterified alkoxylated polyol made by reacting 8 equivalents of propylene oxide with one equivalent of glycerin under basic conditions and esterifying with soybean fatty acids; this conventional fat substitute has a low (<5%) proportion of primary ester linkages. […] This finding was surprising in view of U.S. Pat. Nos. 5,059,443 and 5,077,073, which indicate that the rate of lipase-catalyzed hydrolysis is substantially independent of the structure of the ester linkages in an esterified alkoxylated polyol fat substitute.

Substance: Soybean Oil
- Hydrolysis Rate (#μeq/min for an equivalent amount of enzyme): 3.62 μeq/min
- Hydrolyzability (relative to olive oil): 0.738
- Normalized Hydrolyzability (hydrolyzability compared on an equal molar basis, taking into account the concentration of ester linkages): 0.723
